# Assay results: patent US10167262B2, “Herbicidal substituted 3-arylpyrazoles” (FMC CORPORATION, priority 2014, dated 2019)
# Key:
# Type in all cases: in vivo
# [1] = test system: barnyardgrass (Echinochloa crus-galli); experiment: Test A pre-/postemergence greenhouse herbicide test, visual injury rating 0-100
# Summary of the method: (§1)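 Seeds planted in loam-sand blend; preemergence directed soil spray and postemergence spray at 2–10 cm, one- to two-leaf stage, compounds formulated in non-phytotoxic solvent with surfactant. After about 10 days in greenhouse, injury rated visually against untreated controls, 0 (no effect) to 100 (complete control).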
# [2] = test system: corn (Zea mays); experiment: as above
# Summary of the method: as §1
# [3] = test system: giant foxtail (Setaria faberii); experiment: as above
# Summary of the method: as §1
# [4] = test system: large (Lg) crabgrass (Digitaria sanguinalis); experiment: as above
# Summary of the method: as §1
# [5] = test system: morningglory (Ipomoea spp.); experiment: as above
# Summary of the method: as §1
# [6] = test system: pigweed (Amaranthus retroflexus); experiment: as above
# Summary of the method: as §1
# [7] = test system: velvetleaf (Abutilon theophrasti); experiment: as above
# Summary of the method: as §1
# [8] = test system: wheat (Triticum aestivum); experiment: as above
# Summary of the method: as §1
# [9] = test system: barnyardgrass (Echinochloa crus-galli); experiment: Test B flooded paddy test, plant response rating 0-100; details: Flood, 250 g ai/ha; scale 0 to 100 (0 no effect, 100 complete control); 13 to 15 days
# Summary of the method: (§2)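 Pots were flooded to 3 cm above the soil surface at treatment, compound applied directly to the paddy water, and that depth held throughout. Plants were kept in a greenhouse for 13 to 15 days, then visually rated against untreated controls.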
# [10] = test system: ducksalad (Heteranthera limosa); experiment: as above; details: Flood, 250 g ai/ha; scale 0 to 100 (0 no effect, 100 complete control); 13 to 15 days
# Summary of the method: as §2
# [11] = test system: rice (Oryza sativa); experiment: as above; details: Flood, 250 g ai/ha; scale 0 to 100 (0 no effect, 100 complete control); 13 to 15 days
# Summary of the method: as §2
# [12] = test system: sedge, umbrella (small-flower umbrella sedge, Cyperus difformis); experiment: as above; details: Flood, 250 g ai/ha; scale 0 to 100 (0 no effect, 100 complete control); 13 to 15 days
# Summary of the method: as §2
compound,measurement,setting,value
Fc1cc(Cl)cc(-c2n[nH]cc2C(=NN2CCCC2)c2ccccc2)c1 [Compound 42],"Plant response rating (0 to 100 scale), Barnyardgrass","[1]; Postemergence, 1000 g ai/ha",0
same,"Plant response rating (0 to 100 scale), Barnyardgrass","[1]; Preemergence, 1000 g ai/ha",0
same,"Plant response rating (0 to 100 scale), Corn","[2]; Postemergence, 1000 g ai/ha",0
same,"Plant response rating (0 to 100 scale), Corn","[2]; Preemergence, 1000 g ai/ha",0
same,"Plant response rating (0 to 100 scale), Foxtail, Giant","[3]; Postemergence, 1000 g ai/ha",0
same,"Plant response rating (0 to 100 scale), Foxtail, Giant","[3]; Preemergence, 1000 g ai/ha",0
same,"Plant response rating (0 to 100 scale), Crabgrass, Large","[4]; Postemergence, 1000 g ai/ha",0
same,"Plant response rating (0 to 100 scale), Crabgrass, Large","[4]; Preemergence, 1000 g ai/ha",0
same,"Plant response rating (0 to 100 scale), Morningglory","[5]; Postemergence, 1000 g ai/ha",0
same,"Plant response rating (0 to 100 scale), Morningglory","[5]; Preemergence, 1000 g ai/ha",0
same,"Plant response rating (0 to 100 scale), Pigweed","[6]; Postemergence, 1000 g ai/ha",100
same,"Plant response rating (0 to 100 scale), Pigweed","[6]; Preemergence, 1000 g ai/ha",100
same,"Plant response rating (0 to 100 scale), Velvetleaf","[7]; Postemergence, 1000 g ai/ha",100
same,"Plant response rating (0 to 100 scale), Velvetleaf","[7]; Preemergence, 1000 g ai/ha",100
same,"Plant response rating (0 to 100 scale), Wheat","[8]; Postemergence, 1000 g ai/ha",0
same,"Plant response rating (0 to 100 scale), Wheat","[8]; Preemergence, 1000 g ai/ha",0
same,"Plant response rating, Barnyardgrass",[9],0
same,"Plant response rating, Ducksalad",[10],0
same,"Plant response rating, Rice",[11],0
same,"Plant response rating, Sedge, Umbrella",[12],0
C=CCn1cc(C(=O)c2cccnc2)c(-c2cc(Cl)cc(Cl)c2)n1 [Compound 8],"Plant response rating (0 to 100 scale), Barnyardgrass","[1]; Postemergence, 125 g ai/ha",0
same,"Plant response rating (0 to 100 scale), Barnyardgrass","[1]; Postemergence, 500 g ai/ha",0
same,"Barnyardgrass plant response rating (0 = no effect, 100 = complete control)","[1]; Preemergence, 125 g ai/ha",0
same,"Plant response rating (0 to 100 scale), Barnyardgrass","[1]; Preemergence, 500 g ai/ha",0
same,"Plant response rating (0 to 100 scale), Corn","[2]; Postemergence, 125 g ai/ha",0
same,"Plant response rating (0 to 100 scale), Corn","[2]; Postemergence, 500 g ai/ha",0
same,"Corn plant response rating (0 = no effect, 100 = complete control)","[2]; Preemergence, 125 g ai/ha",0
same,"Plant response rating (0 to 100 scale), Corn","[2]; Preemergence, 500 g ai/ha",0
same,"Plant response rating (0 to 100 scale), Foxtail, Giant","[3]; Postemergence, 125 g ai/ha",0
same,"Plant response rating (0 to 100 scale), Foxtail, Giant","[3]; Postemergence, 500 g ai/ha",0
same,"Foxtail, Giant plant response rating (0 = no effect, 100 = complete control)","[3]; Preemergence, 125 g ai/ha",0
same,"Plant response rating (0 to 100 scale), Foxtail, Giant","[3]; Preemergence, 500 g ai/ha",0
same,"Plant response rating (0 to 100 scale), Crabgrass, Large","[4]; Postemergence, 125 g ai/ha",0
same,"Plant response rating (0 to 100 scale), Crabgrass, Large","[4]; Postemergence, 500 g ai/ha",0
same,"Crabgrass, Large plant response rating (0 = no effect, 100 = complete control)","[4]; Preemergence, 125 g ai/ha",0
same,"Plant response rating (0 to 100 scale), Crabgrass, Large","[4]; Preemergence, 500 g ai/ha",0
same,"Plant response rating (0 to 100 scale), Morningglory","[5]; Postemergence, 125 g ai/ha",0
same,"Plant response rating (0 to 100 scale), Morningglory","[5]; Postemergence, 500 g ai/ha",0
same,"Morningglory plant response rating (0 = no effect, 100 = complete control)","[5]; Preemergence, 125 g ai/ha",0
same,"Plant response rating (0 to 100 scale), Morningglory","[5]; Preemergence, 500 g ai/ha",0
same,"Plant response rating (0 to 100 scale), Pigweed","[6]; Postemergence, 125 g ai/ha",30
same,"Plant response rating (0 to 100 scale), Pigweed","[6]; Postemergence, 500 g ai/ha",60
same,"Pigweed plant response rating (0 = no effect, 100 = complete control)","[6]; Preemergence, 125 g ai/ha",0
same,"Plant response rating (0 to 100 scale), Pigweed","[6]; Preemergence, 500 g ai/ha",50
same,"Plant response rating (0 to 100 scale), Velvetleaf","[7]; Postemergence, 125 g ai/ha",10
same,"Plant response rating (0 to 100 scale), Velvetleaf","[7]; Postemergence, 500 g ai/ha",30
same,"Velvetleaf plant response rating (0 = no effect, 100 = complete control)","[7]; Preemergence, 125 g ai/ha",0
same,"Plant response rating (0 to 100 scale), Velvetleaf","[7]; Preemergence, 500 g ai/ha",0
same,"Plant response rating (0 to 100 scale), Wheat","[8]; Postemergence, 125 g ai/ha",0
same,"Plant response rating (0 to 100 scale), Wheat","[8]; Postemergence, 500 g ai/ha",0
same,"Wheat plant response rating (0 = no effect, 100 = complete control)","[8]; Preemergence, 125 g ai/ha",0
same,"Plant response rating (0 to 100 scale), Wheat","[8]; Preemergence, 500 g ai/ha",0
same,"Plant response rating, Barnyardgrass",[9],0
same,"Plant response rating, Ducksalad",[10],0
same,"Plant response rating, Rice",[11],0
same,"Plant response rating, Sedge, Umbrella",[12],0
